Measured values reported in patent US20250011484A1, “METHODS FOR PREPARING METALLOCENE COMPOUNDS” (Chevron Phillips Chemical Company LP, priority 2023, published 2025).

Tests used:
[1] = Ethylene/1-hexene polymerization with metallocene catalyst compositions
Method: Polymerization experiments employing catalyst compositions comprising MET-A, MET-B, MET-C, MET-D, MET-E, and MET-F were conducted as follows. Unless otherwise indicated, the polymerization experiments used in the following examples were conducted for […] in a one-gallon (3.8 L) stainless-steel autoclave reactor containing isobutane as diluent. A syringe was charged with 250 mg solid activator-support, 2 mL hexane, 0.5 mL of 1M TIBA (in hexane) and 2.0 mg metallocene (MET-A, MET-B, MET-C, MET-D, MET-E, or MET-F, as noted in Tables III and IV) in that order. The slurry was charged to the reactor under an isobutane purge. The reactor was sealed, charged with 2 L of isobutane, and heated to 80° C. Ethylene was charged to the reactor and fed on demand to maintain the target pressure of 320 psig (2.2 MPa). The reactor was maintained at the target temperature throughout the experiment by an automated heating-cooling system. After venting of the reactor, purging, and cooling, the resulting polymer product was dried under reduced pressure. For Examples 40-41, the polymerization temperature was 90° C., and ethylene pressure was maintained at 390 psig ethylene, with a 1-hexene feed ratio of 20 wt. % vs. ethylene.

[2] = Solubility of metallocenes in 1-decene; type: physicochemical; conditions: ambient temperature (21° C.), visual inspection for solids or haze
Method: Additional portions of the desired metallocenes were then added in increments of 3-4 mg and the mixture was allowed to stir for 30 minutes after each addition at ambient temperature (21° C.). The resulting mixtures were visually inspected for solids or significant haze. Metallocenes were considered soluble if significant haze or solids were not observed.

[3] = Metallocene-catalyzed oligomerization of 1-decene; conditions: 1-decene 675 g, 110° C., 1 hour, 5 mg metallocene, CTSO, TIBA, hydrogen
Method: Metallocene-catalyzed oligomerizations were performed using MET-A and MET-D as follows. Generally, 1-decene was oligomerized to an oligomer product of dimers, trimers, and tetramers in the presence of MET-A or MET-D, as noted in Table II below. For Examples 8-9, a 1-gallon batch reactor was charged with 675 g of 1-decene. A syringe was charged with CTSO (0.750 g), TIBA (1.3 mL of a 1.0 M hexane solution), and metallocene (5 mg). The chemically treated solid oxide (CTSO) was a fluorided silica-coated alumina (60:40 alumina:silica by weight) containing 4 wt. % F and having a d50 average particle size of 35 microns, a BET surface area of 450 m^2/g, and a pore volume of 1.1 mL/g. The catalyst mixture was shaken to mix and was then charged to the reactor under a nitrogen purge. The reactor was heated to 110° C. while stirring at 600-900 rpm. […]
The reaction mixture was then filtered and analyzed by gas chromatography to determine the yield of oligomer product formed in the reaction mixture, and to determine the relative amount of certain oligomers within the oligomer product (e.g., the trimer:tetramer weight ratio). […]
The distribution of olefin end groups was determined using ^1H NMR on a Bruker 300 MHz NMR. Spectra were recorded in CDCl3 and are reported relative to SiMe4 as determined by reference to the residual ^1H solvent peak. […]

SMILES	Support Activity ([1]; 1-hexene 7.5 g, 80° C., 320 psig, 30 min, isobutane, TIBA)	Support Activity ([1]; 1-hexene 12 g, 80° C., 320 psig, 30 min, isobutane, TIBA)	Support Activity ([1]; 1-hexene 17.5 g, 80° C., 320 psig, 30 min, isobutane, TIBA)	Support Activity ([1]; 1-hexene 30 g, 80° C., 320 psig, 30 min, isobutane, TIBA)	Support Activity ([1]; Table IV, 1-hexene 49 g, 90° C., 390 psig ethylene, 1-hexene feed ratio 20 wt. %) [g/g/h]	Solubility [2] [wt. %]	Activity [3]	Support Activity ([1]; Table IV, 1-hexene 51 g, 90° C., 390 psig ethylene, 1-hexene feed ratio 20 wt. %) [g/g/h]
Fc1c(F)c(F)c(C[c-]2ccc3ccccc32)c(F)c1F.[Cl-].[Cl-].[Zr+4].c1cc[cH-]c1 (stereo not drawn) [MET-A]	1,920 g/(g*h)	1,776 g/(g*h)	1,872 g/(g*h)	2,144 g/(g*h)	2937	<0.1	75,060 g/(g*h)	
CCCC[c-]1cccc1.Fc1c(F)c(F)c(C[c-]2ccc3ccccc32)c(F)c1F.[Cl-].[Cl-].[Zr+4] (stereo not drawn) [MET-G]						0.4		1392
